Patent US10329320B2, “Neuroactive steroids, compositions, and uses thereof” (Sage Therapeutics, Inc., priority 2015, dated 2019)

The compounds below were run against GABAA receptor ([35S]-TBPS binding, rat brain cortical membranes) (assay: Steroid inhibition of [35S]-TBPS binding (radioligand displacement)). Settings: 3 nM [35S]-TBPS, in the presence of 5 μM GABA.
Method: TBPS binding assays using rat brain cortical membranes in the presence of 5 μM GABA has been described (Gee et al, J. Pharmacol. Exp. Ther. 1987, 241, 346-353; Hawkinson et al, Mol. Pharmacol. 1994, 46, 977-985; Lewin, A. H et al., Mol. Pharmacol. 1989, 35, 189-194).
Briefly, cortices are rapidly removed following decapitation of carbon dioxide-anesthetized Sprague-Dawley rats (200-250 g). The cortices are homogenized in 10 volumes of ice-cold 0.32 M sucrose using a glass/teflon homogenizer and centrifuged at 1500×g for 10 min at 4° C. The resultant supernatants are centrifuged at 10,000×g for 20 min at 4° C. to obtain the P2 pellets. The P2 pellets are resuspended in 200 mM NaCl/50 mM Na—K phosphate pH 7.4 buffer and centrifuged at 10,000×g for 10 min at 4° C. This washing procedure is repeated twice and the pellets are resuspended in 10 volumes of buffer. Aliquots (100 μL) of the membrane suspensions are incubated with 3 nM [^35S]-TBPS and 5 μL aliquots of test drug dissolved in dimethyl sulfoxide (DMSO) (final 0.5%) in the presence of 5 μM GABA. The incubation is brought to a final volume of 1.0 mL with buffer. Nonspecific binding is determined in the presence of 2 μM unlabeled TBPS and ranged from 15 to 25%. Following a 90 min incubation at room temp, the assays are terminated by filtration through glass fiber filters (Schleicher and Schuell No. 32) using a cell harvester (Brandel) and rinsed three times with ice-cold buffer. Filter bound radioactivity is measured by liquid scintillation spectrometry. Non-linear curve fitting of the overall data for each drug averaged for each concentration is done using Prism (GraphPad). […] The concentration of test compound producing 50% inhibition (IC50) of specific binding and the maximal extent of inhibition (Imax) are determined for the individual experiments with the same model used for the overall data and then the means ±SEM.s of the individual experiments are calculated.
Various compounds are or can be screened to determine their potential as modulators of [^35S]-TBPS binding in vitro. These assays are or can be performed in accordance with the above discussed procedures.

SMILES | IC50 [nM]
COC[C@]12CC[C@@](C)(O)C[C@H]1CC[C@H]1[C@@H]3CC[C@H](C(=O)Cn4nnnc4C)[C@@]3(C)CC[C@@H]12 [Compound 63] | 100 to 500
COC[C@]12CC[C@@](C)(O)C[C@@H]1CC[C@H]1[C@@H]3CC[C@H](C(=O)Cn4nc5cc(F)cc(F)c5n4)[C@@]3(C)CC[C@@H]12 [Compound 10] | < 10
COC[C@]12CC[C@@](C)(O)C[C@H]1CC[C@H]1[C@@H]3CC[C@H](C(=O)Cn4nc5cccc(OC)c5n4)[C@@]3(C)CC[C@@H]12 [Compound 30] | < 10
CC(C)OC[C@]12CC[C@@](C)(O)C[C@H]1CC[C@H]1[C@@H]3CC[C@H](C(=O)Cn4nnc5c(F)c(F)ccc54)[C@@]3(C)CC[C@@H]12 [Compound 68] | < 10
COC[C@]12CC[C@@](C)(O)C[C@H]1CC[C@H]1[C@@H]3CC[C@H](C(=O)Cn4cc(N)cn4)[C@@]3(C)CC[C@@H]12 [Compound 66] | 10 to 50
CCOC(=O)c1cn(CC(=O)[C@H]2CC[C@H]3[C@@H]4CC[C@H]5C[C@](C)(O)CC[C@]5(COC)[C@H]4CC[C@]23C)nn1 [Compound 80] | 100 to 500
COC[C@]12CC[C@@](C)(O)C[C@H]1CC[C@@H]1[C@@H]2CC[C@]2(C)C(C(=O)Cn3nnnc3C)CC[C@@H]12 (stereo partly shown) [Compound 74] | 100 to 500
COC[C@]12CC[C@@](C)(O)C[C@@H]1CC[C@H]1[C@@H]3CC[C@H](C(=O)Cn4ncc5cccnc54)[C@@]3(C)CC[C@@H]12 [Compound 47] | 10 to 50
COC[C@]12CC[C@@](C)(O)C[C@H]1CC[C@H]1[C@@H]3CC[C@H](C(=O)Cn4ncc5cc(F)ccc54)[C@@]3(C)CC[C@@H]12 [Compound 16] | < 10
COC[C@]12CC[C@@](C)(O)C[C@@H]1CC[C@H]1[C@@H]3CC[C@H](C(=O)Cn4cc(C)cn4)[C@@]3(C)CC[C@@H]12 [Compound 60] | 100 to 500
COC[C@]12CC[C@@](C)(O)C[C@H]1CC[C@H]1[C@@H]3CC[C@H](C(=O)Cn4cc(SC)cn4)[C@@]3(C)CC[C@@H]12 [Compound 34] | 10 to 50
COC[C@]12CC[C@@](C)(O)C[C@@H]1CC[C@H]1[C@@H]3CC[C@H](C(=O)Cn4nc5cc(Cl)cnc5n4)[C@@]3(C)CC[C@@H]12 [Compound 13] | < 10
COC[C@]12CC[C@@](C)(O)C[C@H]1CC[C@H]1[C@@H]3CC[C@H](C(=O)Cn4cnc(F)c4)[C@@]3(C)CC[C@@H]12 [Compound 52] | 10 to 50
COC[C@]12CC[C@@](C)(O)C[C@H]1CC[C@H]1[C@@H]3CC[C@H](C(=O)Cn4ccnc4C)[C@@]3(C)CC[C@@H]12 [Compound 64] | 100 to 500
COC[C@]12CC[C@@](C)(O)C[C@@H]1CC[C@H]1[C@@H]3CC[C@H](C(=O)Cn4cc5c(OC)cccc5n4)[C@@]3(C)CC[C@@H]12 [Compound 44] | 10 to 50
COC[C@]12CC[C@@](C)(O)C[C@@H]1CC[C@H]1[C@@H]3CC[C@H](C(=O)Cn4cc(OC(C)C)cn4)[C@@]3(C)CC[C@@H]12 [Compound 38] | 50 to 100
COC[C@]12CC[C@@](C)(O)C[C@@H]1CC[C@H]1[C@@H]3CC[C@H](C(=O)Cn4ncc5cccc(OC)c54)[C@@]3(C)CC[C@@H]12 [Compound 41] | 50 to 100
COC[C@]12CC[C@@](C)(O)C[C@@H]1CC[C@H]1[C@@H]3CC[C@H](C(=O)Cn4ncc(CO)n4)[C@@]3(C)CC[C@@H]12 [Compound 85] | > 500
COC[C@]12CC[C@@](C)(O)C[C@@H]1CC[C@H]1[C@@H]3CC[C@H](C(=O)Cn4ncc5cc(OC)ccc54)[C@@]3(C)CC[C@@H]12 [Compound 43] | 50 to 100
COC[C@]12CC[C@@](C)(O)C[C@H]1CC[C@H]1[C@@H]3CC[C@H](C(=O)Cn4nnc5ccccc54)[C@@]3(C)CC[C@@H]12 [Compound 18] | < 10
COC[C@]12CC[C@@](C)(O)C[C@H]1CC[C@H]1[C@@H]3CC[C@H](C(=O)Cn4cc(C(F)(F)F)cn4)[C@@]3(C)CC[C@@H]12 [Compound 67] | 10 to 50
COC[C@]12CC[C@@](C)(O)C[C@@H]1CC[C@H]1[C@@H]3CC[C@H](C(=O)Cn4cc5ccncc5n4)[C@@]3(C)CC[C@@H]12 [Compound 46] | 10 to 50
